Tests used:
Test in all cases: Eurofins kinase panel
Assay type in all cases: biochemical
Conditions in all cases: read-out: Inhibition rate (%)
CaMKIIβ(h) = target: T1, CaMKIIβ(h) (Homo sapiens, UniProt Q13554)
T1 construct: purchased Eurofins (KinaseProfiler)

PKD2(h) = target: T2, PKD2(h) (Homo sapiens, UniProt Q9BZL6)
T2 construct: purchased Eurofins (KinaseProfiler)
T2 sequence (Q9BZL6 1-878): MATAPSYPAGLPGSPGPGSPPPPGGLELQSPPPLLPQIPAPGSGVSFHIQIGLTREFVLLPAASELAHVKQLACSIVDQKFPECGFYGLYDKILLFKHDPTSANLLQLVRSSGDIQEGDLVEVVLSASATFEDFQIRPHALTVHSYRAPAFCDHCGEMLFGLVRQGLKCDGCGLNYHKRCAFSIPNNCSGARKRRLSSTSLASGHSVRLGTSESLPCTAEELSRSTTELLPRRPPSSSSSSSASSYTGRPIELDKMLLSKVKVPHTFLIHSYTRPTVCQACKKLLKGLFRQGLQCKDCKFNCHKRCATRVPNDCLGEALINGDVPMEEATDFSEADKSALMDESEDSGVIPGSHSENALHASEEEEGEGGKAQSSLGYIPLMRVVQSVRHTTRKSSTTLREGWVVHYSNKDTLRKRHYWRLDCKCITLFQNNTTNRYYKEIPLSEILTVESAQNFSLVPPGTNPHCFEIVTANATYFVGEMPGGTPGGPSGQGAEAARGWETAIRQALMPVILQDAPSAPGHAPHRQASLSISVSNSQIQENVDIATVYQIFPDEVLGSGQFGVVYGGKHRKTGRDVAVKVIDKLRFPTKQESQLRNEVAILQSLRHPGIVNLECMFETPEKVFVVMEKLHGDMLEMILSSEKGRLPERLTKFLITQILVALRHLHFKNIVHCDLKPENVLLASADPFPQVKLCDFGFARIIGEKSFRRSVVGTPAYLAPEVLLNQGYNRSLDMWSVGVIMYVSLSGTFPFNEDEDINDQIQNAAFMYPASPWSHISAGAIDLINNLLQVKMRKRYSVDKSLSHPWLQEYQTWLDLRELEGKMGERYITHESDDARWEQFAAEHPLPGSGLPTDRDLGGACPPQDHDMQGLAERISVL

Yes(h) = target: T3, Yes(h) (Homo sapiens, UniProt P07947)
T3 construct: purchased Eurofins (KinaseProfiler)
T3 sequence (P07947 whole entry): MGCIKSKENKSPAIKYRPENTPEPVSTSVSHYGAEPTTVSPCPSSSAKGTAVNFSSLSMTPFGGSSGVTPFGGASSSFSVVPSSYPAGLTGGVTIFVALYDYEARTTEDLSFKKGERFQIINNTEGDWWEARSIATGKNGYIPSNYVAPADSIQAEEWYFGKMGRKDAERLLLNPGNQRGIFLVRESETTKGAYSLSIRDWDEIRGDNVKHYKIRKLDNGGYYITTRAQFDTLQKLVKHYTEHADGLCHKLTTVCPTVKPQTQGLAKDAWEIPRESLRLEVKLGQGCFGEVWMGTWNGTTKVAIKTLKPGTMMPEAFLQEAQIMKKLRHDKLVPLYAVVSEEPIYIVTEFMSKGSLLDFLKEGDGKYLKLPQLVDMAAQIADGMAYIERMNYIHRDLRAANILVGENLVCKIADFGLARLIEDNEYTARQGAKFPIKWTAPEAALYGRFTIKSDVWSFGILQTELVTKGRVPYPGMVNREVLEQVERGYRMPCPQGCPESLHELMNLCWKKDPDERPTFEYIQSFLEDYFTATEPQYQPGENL

SGK(h) = target: T4, SGK(h) (Homo sapiens, UniProt O00141)
T4 construct: purchased Eurofins (KinaseProfiler)
T4 sequence (O00141 1-431): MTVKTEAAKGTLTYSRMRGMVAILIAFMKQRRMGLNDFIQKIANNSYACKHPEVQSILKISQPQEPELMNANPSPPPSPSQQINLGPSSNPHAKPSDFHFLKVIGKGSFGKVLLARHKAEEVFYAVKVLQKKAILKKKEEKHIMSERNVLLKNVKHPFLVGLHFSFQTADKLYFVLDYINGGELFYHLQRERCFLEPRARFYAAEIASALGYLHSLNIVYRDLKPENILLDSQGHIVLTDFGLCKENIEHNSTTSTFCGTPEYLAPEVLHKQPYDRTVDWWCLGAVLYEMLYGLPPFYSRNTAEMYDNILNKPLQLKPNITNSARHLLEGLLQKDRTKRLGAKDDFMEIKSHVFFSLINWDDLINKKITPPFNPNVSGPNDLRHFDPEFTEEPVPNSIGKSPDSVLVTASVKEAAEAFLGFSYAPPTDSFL

SAPK4(h) = target: T5, SAPK4(h) (Homo sapiens, UniProt O15264)
T5 construct: purchased Eurofins (KinaseProfiler)
T5 sequence (O15264 1-365): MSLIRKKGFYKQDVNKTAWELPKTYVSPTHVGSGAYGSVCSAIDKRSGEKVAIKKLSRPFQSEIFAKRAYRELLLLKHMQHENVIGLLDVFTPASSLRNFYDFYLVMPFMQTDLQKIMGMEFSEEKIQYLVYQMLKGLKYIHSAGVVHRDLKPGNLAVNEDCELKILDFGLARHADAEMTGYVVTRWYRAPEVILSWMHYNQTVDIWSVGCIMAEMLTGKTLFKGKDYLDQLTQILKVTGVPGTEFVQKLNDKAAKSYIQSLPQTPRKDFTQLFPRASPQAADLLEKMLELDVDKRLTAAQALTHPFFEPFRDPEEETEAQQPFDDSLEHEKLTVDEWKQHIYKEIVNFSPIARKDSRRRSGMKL

PKBγ(h) = target: T6, PKBγ(h) (Homo sapiens, UniProt Q9Y243)
T6 construct: purchased Eurofins (KinaseProfiler)
T6 sequence (Q9Y243 whole entry): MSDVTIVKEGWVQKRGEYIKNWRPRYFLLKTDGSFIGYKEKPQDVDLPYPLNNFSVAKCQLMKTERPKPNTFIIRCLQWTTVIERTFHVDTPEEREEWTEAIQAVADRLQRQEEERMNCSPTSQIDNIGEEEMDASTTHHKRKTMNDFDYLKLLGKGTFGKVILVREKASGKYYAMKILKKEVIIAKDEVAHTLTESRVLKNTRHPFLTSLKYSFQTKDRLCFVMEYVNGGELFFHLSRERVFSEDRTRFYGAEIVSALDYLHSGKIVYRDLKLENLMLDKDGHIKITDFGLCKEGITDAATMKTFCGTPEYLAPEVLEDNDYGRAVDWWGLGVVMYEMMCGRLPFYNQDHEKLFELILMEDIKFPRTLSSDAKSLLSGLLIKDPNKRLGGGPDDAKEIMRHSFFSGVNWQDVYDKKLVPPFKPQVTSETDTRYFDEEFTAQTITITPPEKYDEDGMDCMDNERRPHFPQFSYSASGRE

TGFBR1(h) = target: T7, TGFBR1(h) (Homo sapiens, UniProt P36897)
T7 construct: purchased Eurofins (KinaseProfiler)
T7 sequence (P36897 34-503): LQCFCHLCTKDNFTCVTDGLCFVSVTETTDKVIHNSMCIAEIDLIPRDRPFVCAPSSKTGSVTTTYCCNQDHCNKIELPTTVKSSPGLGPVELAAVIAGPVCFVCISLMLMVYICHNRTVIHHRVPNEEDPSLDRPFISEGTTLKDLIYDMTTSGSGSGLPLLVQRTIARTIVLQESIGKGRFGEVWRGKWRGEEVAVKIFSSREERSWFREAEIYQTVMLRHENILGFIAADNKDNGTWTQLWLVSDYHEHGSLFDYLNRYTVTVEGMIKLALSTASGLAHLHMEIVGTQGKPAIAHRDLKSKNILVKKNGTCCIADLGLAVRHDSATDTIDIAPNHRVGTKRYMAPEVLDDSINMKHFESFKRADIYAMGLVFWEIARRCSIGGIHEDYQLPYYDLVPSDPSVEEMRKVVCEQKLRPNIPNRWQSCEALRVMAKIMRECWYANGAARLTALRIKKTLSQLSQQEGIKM

T1 sequence (Q13554 whole entry): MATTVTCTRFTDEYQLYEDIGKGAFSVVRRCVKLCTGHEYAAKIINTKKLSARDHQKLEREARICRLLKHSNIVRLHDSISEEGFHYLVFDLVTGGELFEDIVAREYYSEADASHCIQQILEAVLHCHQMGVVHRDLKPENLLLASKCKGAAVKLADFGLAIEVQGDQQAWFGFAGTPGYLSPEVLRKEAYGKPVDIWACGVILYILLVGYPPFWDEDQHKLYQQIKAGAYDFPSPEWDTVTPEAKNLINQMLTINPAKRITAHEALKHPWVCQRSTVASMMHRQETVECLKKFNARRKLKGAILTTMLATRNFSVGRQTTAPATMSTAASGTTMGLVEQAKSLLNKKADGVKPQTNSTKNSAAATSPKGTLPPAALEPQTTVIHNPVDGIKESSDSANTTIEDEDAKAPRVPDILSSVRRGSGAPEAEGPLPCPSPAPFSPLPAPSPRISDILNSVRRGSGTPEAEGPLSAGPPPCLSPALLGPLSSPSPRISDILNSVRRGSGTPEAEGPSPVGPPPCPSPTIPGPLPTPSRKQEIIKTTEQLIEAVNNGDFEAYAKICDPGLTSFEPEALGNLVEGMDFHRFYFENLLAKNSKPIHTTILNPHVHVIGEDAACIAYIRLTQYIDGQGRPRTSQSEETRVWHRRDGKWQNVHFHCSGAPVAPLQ

`COc1cc(OC)c(Cl)c(-c2ccc3c(NC(=O)c4ccc(N5CCNC(C)(C)C5)cc4)n[nH]c3n2)c1Cl` [3D185] showed an inhibition at 0.01 µM (CaMKIIβ(h); 10 nM) of -1%, an inhibition at 0.1 µM (CaMKIIβ(h); 100 nM) of -3% and an inhibition at 1 µM (CaMKIIβ(h); 1000 nM) of -4%. It also gave an inhibition at 0.01 µM (PKD2(h); 10 nM) of 7%, an inhibition at 0.1 µM (PKD2(h); 100 nM) of -4% and an inhibition at 1 µM (PKD2(h); 1000 nM) of 3%. The inhibition at 0.01 µM (Yes(h); 10 nM) was 10%, the inhibition at 0.1 µM (Yes(h); 100 nM) was 66% and the inhibition at 1 µM (Yes(h); 1000 nM) was 97%. The inhibition at 0.01 µM (SGK(h); 10 nM) was -4%, the inhibition at 0.1 µM (SGK(h); 100 nM) was -13% and the inhibition at 1 µM (SGK(h); 1000 nM) was -7%. For the same molecule, the inhibition at 0.01 µM (SAPK4(h); 10 nM) was -12%, the inhibition at 0.1 µM (SAPK4(h); 100 nM) was -8% and the inhibition at 1 µM (SAPK4(h); 1000 nM) was -11%. The inhibition at 0.01 µM (PKBγ(h); 10 nM) was 4%, the inhibition at 0.1 µM (PKBγ(h); 100 nM) was 12% and the inhibition at 1 µM (PKBγ(h); 1000 nM) was 20%. For the same molecule, the inhibition at 0.01 µM (TGFBR1(h); 10 nM) was -15%, the inhibition at 0.1 µM (TGFBR1(h); 100 nM) was -19% and the inhibition at 1 µM (TGFBR1(h); 1000 nM) was -17%.
